According to PubChem BioAssay AID1963431 (Molecular Pharmacology Branch, DTP, NCI, 2024):
pIC50: −log10 of the molar value. Several values for one entry are separate records, joined by “and”; a condition that tells them apart may be missing. Equal entries are not always repeated.

System: Rh18 complex spheroid viability, percent test/control
Experiment: Anticancer human tumor Rh18 cell line growth inhibition [Asc];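 also: spheroids exposed to compound for 7 days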;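 as to viability, T/C: 100% = DMSO vehicle control wells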
Conditions: for viability, T/C: stronger effect = lower value
Procedure, shortened: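 Tumor cells were grown as complex spheroids with human endothelial cells (HUVEC) and human mesenchymal stem cells as stroma. Agents were tested alone and in combination, in half-log steps down from the clinical Cmax, or from 10 microM where Cmax was unknown.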

[1] = curve of first compound, second compound 0.1 µM
[2] = curve of first compound, second compound 0.316 µM
[3] = curve of first compound, second compound 1 µM
[4] = curve of first compound, second compound 3.16 µM
[5] = curve of first compound, second compound 10 µM
[6] = second compound 0.1 µM, first compound 0.0316 µM
[7] = second compound 0.1 µM, first compound 0.1 µM
[8] = second compound 0.316 µM, first compound 0.0316 µM
[9] = second compound 0.316 µM, first compound 0.1 µM
[10] = second compound 1 µM, first compound 0.0316 µM
[11] = second compound 1 µM, first compound 0.1 µM
[12] = second compound 3.16 µM, first compound 0.0316 µM
[13] = second compound 3.16 µM, first compound 0.1 µM
[14] = second compound 10 µM, first compound 0.0316 µM
[15] = second compound 10 µM, first compound 0.1 µM
[16] = second compound 0.1 µM, first compound 0.000316 µM
[17] = second compound 0.1 µM, first compound 0.001 µM
[18] = second compound 0.1 µM, first compound 0.00316 µM
[19] = second compound 0.1 µM, first compound 0.01 µM
[20] = second compound 0.316 µM, first compound 0.000316 µM
[21] = second compound 0.316 µM, first compound 0.001 µM
[22] = second compound 0.316 µM, first compound 0.00316 µM
[23] = second compound 0.316 µM, first compound 0.01 µM
[24] = second compound 1 µM, first compound 0.000316 µM
[25] = second compound 1 µM, first compound 0.001 µM
[26] = second compound 1 µM, first compound 0.00316 µM
[27] = second compound 1 µM, first compound 0.01 µM
[28] = second compound 3.16 µM, first compound 0.000316 µM
[29] = second compound 3.16 µM, first compound 0.001 µM
[30] = second compound 3.16 µM, first compound 0.00316 µM
[31] = second compound 3.16 µM, first compound 0.01 µM
[32] = second compound 10 µM, first compound 0.000316 µM
[33] = second compound 10 µM, first compound 0.001 µM
[34] = second compound 10 µM, first compound 0.00316 µM
[35] = second compound 10 µM, first compound 0.01 µM

`O=C(c1cc(Cc2n[nH]c(=O)c3ccccc23)ccc1F)N1CCN(C(=O)C2CC2)CC1` + Cc1c(S(C)(=O)=O)c(-c2cc(F)cc(N3CCN(c4ccc(NS(=O)(=O)c5ccc(NC(CCN6CCC(C(=O)OCCCP(=O)(O)O)CC6)CSc6ccccc6)c(S(=O)(=O)C(F)(F)F)c5)cc4)CC3)c2)c(-c2ccc(Cl)cc2)n1C(C)C gave a pIC50 [1] of over 7.50, a pIC50 [2] of over 7.50 and a pIC50 [3] of over 7.50. It also gave a pIC50 [4] of over 7.50, a pIC50 [5] of over 7.50 and a viability, T/C [6] of 14.8%. It also gave a viability, T/C [7] of 14.2%, a viability, T/C (second compound 0.1 µM, first compound 0.316 µM) of 14.6% and a viability, T/C (second compound 0.1 µM, first compound 1 µM) of 17.6%. It also gave a viability, T/C (second compound 0.1 µM, first compound 3.16 µM) of 18.5%, a viability, T/C (second compound 0.1 µM, first compound 10 µM) of 13.5% and a viability, T/C [8] of 9.83%. It also gave a viability, T/C [9] of 9.85%, a viability, T/C (second compound 0.316 µM, first compound 0.316 µM) of 10.5% and a viability, T/C (second compound 0.316 µM, first compound 1 µM) of 10.7%. It also gave a viability, T/C (second compound 0.316 µM, first compound 3.16 µM) of 16.4%, a viability, T/C (second compound 0.316 µM, first compound 10 µM) of 9.72% and a viability, T/C [10] of 8.79%. It also gave a viability, T/C [11] of 10.4%, a viability, T/C (second compound 1 µM, first compound 0.316 µM) of 9.85% and a viability, T/C (second compound 1 µM, first compound 1 µM) of 8.8%. It also gave a viability, T/C (second compound 1 µM, first compound 3.16 µM) of 11%, a viability, T/C (second compound 1 µM, first compound 10 µM) of 8.8% and a viability, T/C [12] of 6.37%. For the same compound, the viability, T/C [13] was 7.47%, the viability, T/C (second compound 3.16 µM, first compound 0.316 µM) was 8.14% and the viability, T/C (second compound 3.16 µM, first compound 1 µM) was 5.82%. The viability, T/C (second compound 3.16 µM, first compound 3.16 µM) was 8%, the viability, T/C (second compound 3.16 µM, first compound 10 µM) was 7.02% and the viability, T/C [14] was 4.38%. The viability, T/C [15] was 4.61%, the viability, T/C (second compound 10 µM, first compound 0.316 µM) was 6.78% and the viability, T/C (second compound 10 µM, first compound 1 µM) was 4.36%. For the same compound, the viability, T/C (second compound 10 µM, first compound 3.16 µM) was 5.03% and the viability, T/C (second compound 10 µM, first compound 10 µM) was 5.76%.
Compound `Cc1nc(N2CCC3(CC2)COC(C)C3N)c(CO)nc1Sc1ccnc(N)c1Cl` (configuration not stated) + CCN1C(C(=O)NC23CCC(C(=O)O)(CC2)CC3)C(c2cccc(Cl)c2F)C2(C(=O)Nc3cc(Cl)ccc32)C12CCCCC2 has a pIC50 (curve of first compound, second compound 0.03 µM) of over 8.02, a pIC50 (curve of first compound, second compound 0.0949 µM) of over 8.02 and a pIC50 (curve of first compound, second compound 0.3 µM) of over 8.02. It also gave a pIC50 (curve of first compound, second compound 0.949 µM) of over 8.02, a pIC50 (curve of first compound, second compound 3 µM) of over 8.02 and a viability, T/C (second compound 0.03 µM, first compound 0.00949 µM) of 27%. The viability, T/C (second compound 0.03 µM, first compound 0.03 µM) was 25.9%, the viability, T/C (second compound 0.03 µM, first compound 0.0949 µM) was 21.3% and the viability, T/C (second compound 0.03 µM, first compound 0.3 µM) was 17.6%. For the same compound, the viability, T/C (second compound 0.03 µM, first compound 0.949 µM) was 12.5%, the viability, T/C (second compound 0.03 µM, first compound 3 µM) was 10.6% and the viability, T/C (second compound 0.0949 µM, first compound 0.00949 µM) was 15.7%. The viability, T/C (second compound 0.0949 µM, first compound 0.03 µM) was 14.1%, the viability, T/C (second compound 0.0949 µM, first compound 0.0949 µM) was 12.6% and the viability, T/C (second compound 0.0949 µM, first compound 0.3 µM) was 10.3%. The viability, T/C (second compound 0.0949 µM, first compound 0.949 µM) was 10%, the viability, T/C (second compound 0.0949 µM, first compound 3 µM) was 5.48% and the viability, T/C (second compound 0.3 µM, first compound 0.00949 µM) was 10.6%. The viability, T/C (second compound 0.3 µM, first compound 0.03 µM) was 11.8%, the viability, T/C (second compound 0.3 µM, first compound 0.0949 µM) was 7.08% and the viability, T/C (second compound 0.3 µM, first compound 0.3 µM) was 6.62%. It also gave a viability, T/C (second compound 0.3 µM, first compound 0.949 µM) of 4.84%, a viability, T/C (second compound 0.3 µM, first compound 3 µM) of 3.71% and a viability, T/C (second compound 0.949 µM, first compound 0.00949 µM) of 7.44%. It also gave a viability, T/C (second compound 0.949 µM, first compound 0.03 µM) of 6.92%, a viability, T/C (second compound 0.949 µM, first compound 0.0949 µM) of 5.92% and a viability, T/C (second compound 0.949 µM, first compound 0.3 µM) of 4.76%. The viability, T/C (second compound 0.949 µM, first compound 0.949 µM) was 3.46%, the viability, T/C (second compound 0.949 µM, first compound 3 µM) was 1.83% and the viability, T/C (second compound 3 µM, first compound 0.00949 µM) was 5.58%. The viability, T/C (second compound 3 µM, first compound 0.03 µM) was 7.16%, the viability, T/C (second compound 3 µM, first compound 0.0949 µM) was 4.62% and the viability, T/C (second compound 3 µM, first compound 0.3 µM) was 3.55%. It also gave a viability, T/C (second compound 3 µM, first compound 0.949 µM) of 3.01% and a viability, T/C (second compound 3 µM, first compound 3 µM) of 1.74%.
`NC1CCC(NC2CC2c2ccccc2)CC1` (configuration not stated) + Cc1c(S(C)(=O)=O)c(-c2cc(F)cc(N3CCN(c4ccc(NS(=O)(=O)c5ccc(NC(CCN6CCC(C(=O)OCCCP(=O)(O)O)CC6)CSc6ccccc6)c(S(=O)(=O)C(F)(F)F)c5)cc4)CC3)c2)c(-c2ccc(Cl)cc2)n1C(C)C showed a pIC50 [1] of over 9.50, a pIC50 [2] of over 9.50 and a pIC50 [3] of over 9.50. It also gave a pIC50 [4] of over 9.50, a pIC50 [5] of over 9.50 and a viability, T/C [16] of 13.1%. It also gave a viability, T/C [17] of 13.2%, a viability, T/C [18] of 10.9% and a viability, T/C [19] of 10.2%. It also gave a viability, T/C [6] of 12.5%, a viability, T/C [7] of 11.2% and a viability, T/C [20] of 10.4%. For the same compound, the viability, T/C [21] was 9.84%, the viability, T/C [22] was 8.02% and the viability, T/C [23] was 8.28%. It also gave a viability, T/C [8] of 8.54%, a viability, T/C [9] of 8.22% and a viability, T/C [24] of 6.65%. For the same compound, the viability, T/C [25] was 6.65%, the viability, T/C [26] was 6.88% and the viability, T/C [27] was 4.85%. It also gave a viability, T/C [10] of 5.16%, a viability, T/C [11] of 5.77% and a viability, T/C [28] of 4.21%. For the same compound, the viability, T/C [29] was 3.65%, the viability, T/C [30] was 3.75% and the viability, T/C [31] was 3.61%. For the same compound, the viability, T/C [12] was 3.49%, the viability, T/C [13] was 4.43% and the viability, T/C [32] was 2.72%. The viability, T/C [33] was 3.65%, the viability, T/C [34] was 3% and the viability, T/C [35] was 2.12%. It also gave a viability, T/C [14] of 2.21% and a viability, T/C [15] of 2.07%.
`Cn1ncnc1[C@H]1c2n[nH]c(=O)c3cc(F)cc(c23)N[C@@H]1c1ccc(F)cc1` + Cc1c(S(C)(=O)=O)c(-c2cc(F)cc(N3CCN(c4ccc(NS(=O)(=O)c5ccc(NC(CCN6CCC(C(=O)OCCCP(=O)(O)O)CC6)CSc6ccccc6)c(S(=O)(=O)C(F)(F)F)c5)cc4)CC3)c2)c(-c2ccc(Cl)cc2)n1C(C)C showed a pIC50 [1] of over 9.50, a pIC50 [2] of over 9.50 and a pIC50 [3] of over 9.50. The pIC50 [4] was over 9.50, the pIC50 [5] was over 9.50 and the viability, T/C [16] was 17.4%. It also gave a viability, T/C [17] of 14.9%, a viability, T/C [18] of 17% and a viability, T/C [19] of 15.3%. For the same compound, the viability, T/C [6] was 13.6%, the viability, T/C [7] was 15.4% and the viability, T/C [20] was 10.9%. It also gave a viability, T/C [21] of 11.7%, a viability, T/C [22] of 10.6% and a viability, T/C [23] of 11.8%. The viability, T/C [8] was 11.4%, the viability, T/C [9] was 12.6% and the viability, T/C [24] was 10.5%. It also gave a viability, T/C [25] of 9.96%, a viability, T/C [26] of 7.96% and a viability, T/C [27] of 6.9%. For the same compound, the viability, T/C [10] was 8.38%, the viability, T/C [11] was 9.11% and the viability, T/C [28] was 5.76%. For the same compound, the viability, T/C [29] was 7.46%, the viability, T/C [30] was 5.55% and the viability, T/C [31] was 6.19%. For the same compound, the viability, T/C [12] was 6.82%, the viability, T/C [13] was 6.64% and the viability, T/C [32] was 6.76%. It also gave a viability, T/C [33] of 6.12%, a viability, T/C [34] of 6.36% and a viability, T/C [35] of 5.83%. For the same compound, the viability, T/C [14] was 6.8% and the viability, T/C [15] was 9.69%.
For `O=C(c1ccc(F)c(F)c1Nc1ccc(I)cc1F)N1CC(O)([C@@H]2CCCCN2)C1`, the viability, T/C (compound 0.00316 µM) was 91.5% and 92.7% and 97.3%, the viability, T/C (compound 0.01 µM) was 76.6% and 84.3% and 100% and the viability, T/C (compound 0.0316 µM) was 91.3% and 70.7% and 83.2%. The viability, T/C (compound 0.1 µM) was 77.7% and 78.5% and 78%, the viability, T/C (compound 0.316 µM) was 85% and 95.7% and 75.4% and the viability, T/C (compound 1 µM) was 20.7% and 36.6% and 40.9%. The pIC50 (curve of compound) was 6.23 and 6.14.
